This note sets out measurements from patent US8183243B2, “Melanocortin receptor agonists” (LG Life Sciences Ltd., priority 2008, dated 2012).

The term EC50 denotes the midpoint of the concentration-response curve.

The target in one experiment is T1, MC4R (Homo sapiens, UniProt P32245).
T1 construct: expressed in transfected cells; host or cells: HEK (Human Embryonic Kidney) permanent expression cell line HEK MC4R-Luc, co-expressing CRE-luciferase
T1 sequence (P32245 whole entry, species assumed): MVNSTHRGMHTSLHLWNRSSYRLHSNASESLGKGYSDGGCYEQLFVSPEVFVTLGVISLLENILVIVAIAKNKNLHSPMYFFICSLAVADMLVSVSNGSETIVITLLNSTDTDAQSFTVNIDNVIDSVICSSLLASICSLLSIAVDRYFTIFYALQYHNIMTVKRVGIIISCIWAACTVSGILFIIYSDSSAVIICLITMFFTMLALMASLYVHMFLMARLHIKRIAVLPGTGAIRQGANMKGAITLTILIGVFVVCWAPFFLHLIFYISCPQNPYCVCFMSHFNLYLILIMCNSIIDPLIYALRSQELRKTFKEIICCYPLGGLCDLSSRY
Briefly: MCR agonistic activity (luciferase assay / cAMP accumulation assay) on MC4R. It counts as cell-based. The note with it: HEK cell lines expressing MC4R; method A (CRE-luciferase) or B (cAMP accumulation), not said which; read-out: EC50 value, agonistic activity to MC4R (range per group of Examples). In outline: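 HEK cells stably expressing MC4R with a CRE-luciferase reporter treated 5 hours at 37 °C with serially diluted agonist (≤1% DMSO); luminescence expressed relative to 10 nM NDP-MSH, EC50 at half-maximal signal. Alternatively, cAMP measured after 30 minutes with compound plus 500 μM IBMX by [3H]-cAMP competition binding.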
Background: Cyclic AMP is a second messenger, typically raised through Gs and lowered through Gi signalling.
Turning to `CN1CCN(C(=O)[C@H]2C[C@H](N(C(=O)[C@@H]3CCCO3)[C@H]3CC[C@@H](C)CC3)CN2C(=O)[C@@H]2CN(C3CC3)C[C@H]2c2ccc(Cl)cc2)CC1` [Example 57, (2S)-N-{(3S,5R)-1-{[(3S,4R)-4-(4-chlorophenyl)-1-cyclopropylpyrrolidin-3-yl]carbonyl}-5-[(4-methylpiperazin-1-yl)carbonyl]pyrrolidin-3-yl}-N-(cis-4-methylcyclohexyl)tetrahydrofuran-2-carboxamide], the EC50 lay within 10 to 100 nM.

With `CC(C)N1CCN(C(=O)[C@@H]2C[C@H](N(C(=O)[C@@H]3CCCO3)C3CCC(C)(C)CC3)CN2C(=O)[C@@H]2CN(C3CCOCC3)C[C@H]2c2ccc(F)cc2F)CC1` [Example 47, (2S)-N-{(3S,5S)-1-{[(3S,4R)-4-(2,4-difluorophenyl)-1-(tetrahydro-2H-pyran-4-yl)pyrrolidin-3-yl]carbonyl}-5-[(4-isopropylpiperazin-1-yl)carbonyl]pyrrolidin-3-yl}-N-(4,4-dimethylcyclohexyl)tetrahydrofuran-2-carboxamide], the EC50 is 10 to 100 nM.

`CN1CCN(C(=O)[C@@H]2C[C@H](N(C(=O)[C@@H]3CCCO3)[C@H]3CC[C@@H](C)CC3)CN2C(=O)[C@@H]2CN(c3ccc(=O)n(C)n3)C[C@H]2c2ccc(Cl)cc2)CC1` [Example 72, (2S)-N-{(3S,5S)-1-{[(3S,4R)-4-(4-chlorophenyl)-1-(1-methyl-6-oxo-1,6-dihydropyridazine-3-yl)pyrrolidin-3-yl]carbonyl}-5-[(4-methylpiperazin-1-yl)carbonyl]pyrrolidin-3-yl}-N-(cis-4-methylcyclohexyl)tetrahydrofuran-2-carboxamide]: the EC50 was in the range of 0.1 to 10 nM.

On to `CN1CCN(C(=O)[C@@H]2C[C@H](N(C(=O)[C@@H]3CCCO3)C3CCC(C)(C)CC3)CN2C(=O)[C@@H]2CN(C3CC3)C[C@H]2c2ccc(Cl)cc2)CC1` [Example 42, (2S)-N-{(3S,5S)-1-{[(3S,4R)-4-(4-chlorophenyl)-1-cyclopropylpyrrolidin-3-yl]carbonyl}-5-[(4-methylpiperazin-1-yl)carbonyl]pyrrolidin-3-yl}-N-(4,4-dimethylcyclohexyl)tetrahydrofuran-2-carboxamide], for which the concentration giving a half-maximal response (EC50) lay within 10 to 100 nM.

`CN1CCN(C(=O)[C@@H]2C[C@H](N(C(=O)[C@@H]3CCCO3)C3CCC(F)(F)CC3)CN2C(=O)[C@@H]2CN(C(C)(C)C)C[C@H]2c2ccc(Cl)cc2)CC1` [Example 31, (2S)-N-{(3S,5S)-1-{[(3S,4R)-1-tert-butyl-4-(4-chlorophenyl)pyrrolidin-3-yl]carbonyl}-5-[(4-methylpiperazin-1-yl)carbonyl]pyrrolidin-3-yl}-N-(4,4-difluorocyclohexyl)tetrahydrofuran-2-carboxamide]: the EC50 was in the range of 10 to 100 nM.

In the case of `CN1CCN(C(=O)[C@@H]2C[C@H](N(C(=O)C(C)(C)C)C3CCC(C)(C)CC3)CN2C(=O)[C@@H]2CN(c3ncccn3)C[C@H]2c2ccc(Cl)cc2)CC1` [Example 67, N-{(3S,5S)-1-{[(3S,4R)-4-(4-chlorophenyl)-1-pyrimidine-2-ylpyrrolidin-3-yl]carbonyl}-5-[(4-methylpiperazin-1-yl)carbonyl]pyrrolidin-3-yl}-N-(4,4-dimethylcyclohexyl)-2,2-dimethylpropanamide], the EC50 fell in the range of 1000 to 10000 nM.

Consider `CN1CCN(C(=O)[C@@H]2C[C@H](N(C(=O)C(C)(C)CO)C3CCC(C)(C)CC3)CN2C(=O)[C@@H]2CN(C(C)(C)C)C[C@H]2c2ccc(F)cc2F)CC1` [Example 15, N-{(3S,5S)-1-{[(3S,4R)-1-tert-butyl-4-(2,4-difluorophenyl)pyrrolidin-3-yl]carbonyl}-5-[(4-methylpiperazin-1-yl)carbonyl]pyrrolidin-3-yl}-N-(4,4-dimethylcyclohexyl)-3-hydroxy-2,2-dimethylpropanamide], for which the EC50 was 0.1 to 10 nM.

Turning to `CN1CCN(C(=O)[C@@H]2C[C@@H](N(C(=O)[C@@H]3CCCO3)[C@H]3CC[C@@H](C)CC3)CN2C(=O)[C@@H]2CN(C(C)(C)C)C[C@H]2c2ccc(Cl)cc2)CC1` [Example 76, (2S)-N-{(3R,5S)-1-{[(3S,4R)-1-tert-butyl-4-(4-chlorophenyl)pyrrolidin-3-yl]carbonyl}-5-[(4-methylpiperazin-1-yl)carbonyl]pyrrolidin-3-yl}-N-(cis-4-methylcyclohexyl)tetrahydrofuran-2-carboxamide], the EC50 is 100 to 1000 nM.

Consider `CN1CCN(C(=O)[C@@H]2C[C@H](N(C(=O)C(C)(C)C)[C@H]3CC[C@@H](C)CC3)CN2C(=O)[C@@H]2CN(C3CCOCC3)C[C@H]2c2ccc(F)cc2F)CC1` [Example 53, N-{(3S,5S)-1-{[(3S,4R)-4-(2,4-difluorophenyl)-1-(tetrahydro-2H-pyran-4-yl)pyrrolidin-3-yl]carbonyl}-5-[(4-methylpiperazin-1-yl)carbonyl]pyrrolidin-3-yl}-2,2-dimethyl-N-(cis-4-methylcyclohexyl)propanamide], for which the EC50 lay within 0.1 to 10 nM.

Turning to `Cc1ccc(N2C[C@@H](C(=O)N3C[C@@H](N(C(=O)C(C)(C)C)C4CCC(C)(C)CC4)C[C@H]3C(=O)N3CCN(C)CC3)[C@H](c3ccc(Cl)cc3)C2)nn1` [Example 63, N-{(3S,5S)-1-{[(3S,4R)-4-(4-chlorophenyl)-1-(6-methylpyridazine-3-yl)pyrrolidin-3-yl]carbonyl}-5-[(4-methylpiperazin-1-yl)carbonyl]pyrrolidin-3-yl}-N-(4,4-dimethylcyclohexyl)-2,2-dimethylpropanamide], the EC50 was in the range of 10 to 100 nM.

On to `CN1CCN(C(=O)[C@@H]2C[C@H](N(C(=O)[C@@H]3CCCO3)[C@H]3CC[C@@H](C)CC3)CN2C(=O)[C@@H]2CN(c3ccc(=O)[nH]n3)C[C@H]2c2ccc(Cl)cc2)CC1` [Example 73, (2S)-N-{(3S,5S)-1-{[(3S,4R)-4-(4-chlorophenyl)-1-(6-oxo-1,6-dihydropyridazine-3-yl)pyrrolidin-3-yl]carbonyl]-5-[(4-methylpiperazin-1-yl)carbonyl]pyrrolidin-3-yl}-N-(cis-4-methylcyclohexyl)tetrahydrofuran-2-carboxamide], for which the EC50 lay in the range of 0.1 to 10 nM.

With `CN1CCN(C(=O)[C@@H]2C[C@H](N(C(=O)C(C)(C)C)[C@H]3CC[C@@H](C)CC3)CN2C(=O)[C@@H]2CN(C(C)(C)C)C[C@H]2c2ccc(F)cc2F)CC1` [Example 18, N-{(3S,5S)-1-{[(3S,4R)-1-tert-butyl-4-(2,4-difluorophenyl)pyrrolidin-3-yl]carbonyl}-5-[(4-methylpiperazin-1-yl)carbonyl]pyrrolidin-3-yl}-2,2-dimethyl-N-(cis-4-methylcyclohexyl)propanamide], the EC50 lay in the range of 0.1 to 10 nM.

`CCN1CCN(C(=O)[C@@H]2C[C@H](N(C(=O)[C@@H]3CCCO3)[C@H]3CC[C@@H](C)CC3)CN2C(=O)[C@@H]2CN(C(C)(C)C)C[C@H]2c2ccc(Cl)cc2)CC1` [Example 22, (2S)-N-{(3S,5S)-1-{[(3S,4R)-1-tert-butyl-4-(4-chlorophenyl)pyrrolidin-3-yl]carbonyl}-5-[(4-ethylpiperazin-1-yl)carbonyl]pyrrolidin-3-yl}-N-(cis-4-methylcyclohexyl)tetrahydrofuran-2-carboxamide]: the EC50 fell in the range of 0.1 to 10 nM.

Turning to `Cc1ccccc1N1C[C@@H](C(=O)N2C[C@@H](N(C(=O)[C@@H]3CCCO3)[C@H]3CC[C@@H](C)CC3)C[C@H]2C(=O)N2CCN(C)CC2)[C@H](c2ccc(Cl)cc2)C1` [Example 71, (2S)-N-{(3S,5S)-1-{[(3S,4R)-4-(4-chlorophenyl)-1-(2-methylphenyl)pyrrolidin-3-yl]carbonyl}-5-[(4-methylpiperazin-1-yl)carbonyl]pyrrolidin-3-yl}-N-(cis-4-methylcyclohexyl)tetrahydrofuran-2-carboxamide], the EC50 lay in the range of 1000 to 10000 nM.

In the case of `CC(C)N1CCN(C(=O)[C@@H]2C[C@H](N(C(=O)[C@@H]3CCCO3)[C@H]3CC[C@@H](C)CC3)CN2C(=O)[C@@H]2CN(C(C)(C)C)C[C@H]2c2ccc(Cl)cc2)CC1` [Example 23, (2S)-N-{(3S,5S)-1-{[(3S,4R)-1-tert-butyl-4-(4-chlorophenyl)pyrrolidin-3-yl]carbonyl}-5-[(4-isopropylpiperazin-1-yl)carbonyl]pyrrolidin-3-yl}-N-(cis-4-methylcyclohexyl)tetrahydrofuran-2-carboxamide], the EC50 lay in the range of 0.1 to 10 nM.

As to `CN1CCN(C(=O)[C@@H]2C[C@H](N(C(=O)[C@@H]3CCCO3)[C@H]3CC[C@@H](C)CC3)CN2C(=O)[C@@H]2CN(C3CC3)C[C@H]2c2ccc(Cl)cc2)CC1` [Example 56, (2S)-N-{(3S,5S)-1-{[(3S,4R)-4-(4-chlorophenyl)-1-cyclopropylpyrrolidin-3-yl]carbonyl}-5-[(4-methylpiperazin-1-yl)carbonyl]pyrrolidin-3-yl}-N-(cis-4-methylcyclohexyl)tetrahydrofuran-2-carboxamide], the EC50 was in the range of 10 to 100 nM.

In the case of `CCN1CCN(C(=O)[C@@H]2C[C@H](N(C(C)=O)C3CCC(C)(C)CC3)CN2C(=O)[C@@H]2CN(C(C)(C)C)C[C@H]2c2ccc(Cl)cc2)CC1` [Example 8, N-{(3S,5S)-1-{[(3S,4R)-1-tert-butyl-4-(4-chlorophenyl)pyrrolidin-3-yl]carbonyl}-5-[(4-ethylpiperazin-1-yl)carbonyl]pyrrolidin-3-yl}-N-(4,4-dimethylcyclohexyl)acetamide], the 50% effective concentration (EC50) was 0.1 to 10 nM.

With `CC(=O)N(C1CCC(C)(C)CC1)[C@H]1C[C@@H](C(=O)N2CCN(C)CC2)N(C(=O)[C@@H]2CN(C(C)(C)C)C[C@H]2c2ccc(Cl)cc2)C1` [Example 1, N-{(3S,5S)-1-{[(3S,4R)-1-tert-butyl-4-(4-chlorophenyl)pyrrolidin-3-yl]carbonyl}-5-[(4-methylpiperazin-1-yl)carbonyl]pyrrolidin-3-yl}-N-(4,4-dimethylcyclohexyl)acetamide], the EC50 fell in the range of 0.1 to 10 nM.

The experiment is the same for the next values; noted with them: specific activities of representative compounds; HEK cell lines expressing MC4R; method A or B, not said which; read-out: EC50.
Regarding `CC(=O)N(C1CCC(C)(C)CC1)[C@H]1C[C@@H](C(=O)N2CCN(C)CC2)N(C(=O)[C@@H]2CN(C(C)(C)C)C[C@H]2c2ccc(Cl)cc2)C1` [Example 1, N-{(3S,5S)-1-{[(3S,4R)-1-tert-butyl-4-(4-chlorophenyl)pyrrolidin-3-yl]carbonyl}-5-[(4-methylpiperazin-1-yl)carbonyl]pyrrolidin-3-yl}-N-(4,4-dimethylcyclohexyl)acetamide], the EC50 was found to be 10 nM.
